Measurements reported in patent US9771351B2, “Wnt signaling inhibitor” (KYOWA HAKKO KIRIN CO., LTD., priority 2013, dated 2017).
Read-outs that look alike come from different tables or passages of the source.

Columns and labels:
tankyrase-2 = target: T1, tankyrase-2 (Homo sapiens, UniProt Q9H2K2); test: Tankyrase-2 enzyme inhibition test (Tankyrase-2 Chemiluminescent Assay Kit); assay type: biochemical; settings: autoribosylation of GST-tankyrase-2 fusion protein, chemiluminescence
T1 construct: purchased BPS Bioscience, Inc. 80566
T1 sequence (Q9H2K2 1-1166): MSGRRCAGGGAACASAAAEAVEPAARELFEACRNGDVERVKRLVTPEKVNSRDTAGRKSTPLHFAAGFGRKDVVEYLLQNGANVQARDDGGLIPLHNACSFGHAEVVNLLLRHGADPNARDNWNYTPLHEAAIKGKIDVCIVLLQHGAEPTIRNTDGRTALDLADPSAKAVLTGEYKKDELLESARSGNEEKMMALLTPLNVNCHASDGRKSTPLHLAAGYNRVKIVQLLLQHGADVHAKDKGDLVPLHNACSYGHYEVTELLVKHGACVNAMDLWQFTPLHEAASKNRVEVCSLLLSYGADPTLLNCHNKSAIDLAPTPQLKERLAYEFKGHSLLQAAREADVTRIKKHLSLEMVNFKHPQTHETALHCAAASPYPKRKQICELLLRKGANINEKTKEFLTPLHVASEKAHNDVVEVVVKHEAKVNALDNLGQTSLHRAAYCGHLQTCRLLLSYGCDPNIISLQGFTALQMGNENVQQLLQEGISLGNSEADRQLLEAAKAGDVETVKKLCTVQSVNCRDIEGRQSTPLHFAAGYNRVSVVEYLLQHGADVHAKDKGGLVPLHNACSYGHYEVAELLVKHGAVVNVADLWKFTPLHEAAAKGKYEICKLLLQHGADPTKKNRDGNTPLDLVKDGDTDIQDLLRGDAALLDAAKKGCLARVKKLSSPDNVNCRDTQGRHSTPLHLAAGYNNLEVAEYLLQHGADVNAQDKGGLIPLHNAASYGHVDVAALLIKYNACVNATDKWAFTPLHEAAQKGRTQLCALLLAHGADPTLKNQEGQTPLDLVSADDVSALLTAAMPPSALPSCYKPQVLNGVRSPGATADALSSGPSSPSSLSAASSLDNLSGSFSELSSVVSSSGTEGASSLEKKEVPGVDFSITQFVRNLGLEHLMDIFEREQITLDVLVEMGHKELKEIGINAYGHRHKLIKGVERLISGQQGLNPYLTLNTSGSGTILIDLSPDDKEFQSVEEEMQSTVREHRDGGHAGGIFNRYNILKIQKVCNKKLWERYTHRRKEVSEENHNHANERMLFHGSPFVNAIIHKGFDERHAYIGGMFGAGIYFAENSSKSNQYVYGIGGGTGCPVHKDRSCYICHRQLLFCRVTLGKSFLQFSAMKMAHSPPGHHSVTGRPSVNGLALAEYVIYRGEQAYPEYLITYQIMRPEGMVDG
Description: Test Example 2: Tankyrase-2 Enzyme Inhibition Test
The enzyme activity of tankyrase-2 was evaluated using Tankyrase-2 Chemiluminescent Assay Kit (BPS Bioscience, Inc., Catalog No. 80566). The Tankyrase-2 Chemiluminescent Assay Kit is a kit for evaluating the enzyme activity of tankyrase-2 using autoribosylation of glutathione-S-transferase (GST)-tankyrase-2 fusion protein as an index. All the experimental materials except for PBS (PBST) buffer containing phosphate-buffered saline (PBS) and 0.05% Tween 20 are all included in the kit. The GST-tankyrase-2 enzyme diluted with 50 μL of 1× tankyrase buffer was added to the wells of a 96-well plate coated with glutathione. After the plate was left to stand overnight at 4° C., the plate was washed 3 times with the PBST buffer. 150 μL of blocking buffer was added thereto, and the plate was left to stand at room temperature for 30 minutes to block the wells. The plate was washed 3 times with the PBST buffer. Before the ribosylation reaction, an assay mixture containing a biotinylated substrate and a test compound diluted with 1× tankyrase buffer were mixed, whereby a reaction mixture was prepared. In order to start the ribosylation reaction, 50 μL of the reaction mixture was added to the wells. In a blank well, 1× tankyrase buffer was added in place of the reaction mixture containing a biotinylated substrate. The plate was left to stand at 30° C. for 1 hour. After the reaction, the plate was washed 3 times with the PBST buffer. Streptavidin-horseradish peroxidase (HRP) was diluted to 50-fold with the blocking buffer. The diluted streptavidin-HRP was added to the wells, and the plate was left to stand at room temperature for 30 minutes. The plate was washed 3 times with the PBST buffer. Immediately before use, 50 μL of the HRP chemiluminescent substrate A and 50 μL of the HRP chemiluminescent substrate B were mixed and 100 μL of the resulting mixture was added to the wells. The chemiluminescence was measured using a chemiluminescence measuring apparatus. The inhibition ratio was obtained according to the following formula 2. [Math. 2] Inhibition ratio (%)=100−{(chemiluminescence intensity when test compound was added)−(chemiluminescence intensity of blank)}/{(chemiluminescence intensity of control)−(chemiluminescence intensity of blank)}×100 Formula 2

[1] = test system: T-cell factor (TCF)-luciferase reporter using Wnt pathway as index; test: Inhibitory activity against TCF-luciferase reporter using Wnt pathway as index (DLD-1/TCF-Luc cells); assay type: cell-based, human; settings: for inhibition at 1 µM: Homo sapiens, read-out: Inhibition ratio (%) at 1 μmol/L
Description: Test Example 1: Inhibitory Activity Against T-Cell Factor (TCF)-Luciferase Reporter Using Wnt Pathway as Index
The inhibitory activity of test compounds against Wnt pathway was evaluated by the following method.
A human colorectal adenocarcinoma cell line DLD-1 (Japanese Collection of Research Bioresources) was cultured in RPMI-1640 medium (Gibco/Life Technologies, Inc.) containing 10% fetal bovine serum (Gibco/Life Technologies, Inc.), 10 mmol/L of a 4-(2-hydroxyethyl)-1-piperazineethanesulfonic acid (HEPES) buffer solution (Gibco/Life Technologies, Inc.), 1 mmol/L of a sodium pyruvate solution (Gibco/Life Technologies, Inc.), 4.5 g/L of a D-(+)-glucose solution (Sigma-Aldrich, Inc.), 100 units/mL penicillin (Gibco/Life Technologies, Inc.) and 100 μg/mL of streptomycin (Gibco/Life Technologies, Inc.) under the conditions of 37° C. and 5% carbon dioxide gas. The DLD-1 cells were seeded in a 10 cm dish, and 20 μg of a luciferase gene plasmid pGL4.27 having a TCF responsive sequence inserted therein was transfected into the cells using 10 μL of Attractene (Qiagen, Inc.) according to the protocol attached to the product. A stably expressing cell line (DLD-1/TCF-Luc) was selected using […] of hygromycin B (Wako Pure Chemical Industries Ltd.). The DLD-1/TCF-Luc cells were detached with trypsin and seeded in a 384-well plate, and a test compound was added at different concentrations. After 18 hours, the luciferase activity was measured using Steady-Glo™ Luciferase Assay System (Promega, Inc.).
The inhibition ratio was obtained according to the following formula 1. The inhibition ratio (%) of the compound of the present invention at 1 μmol/L against the TCF-luciferase reporter using the Wnt pathway as an index is shown in Table 6. [Math. 1] Inhibition ratio (%)=100−{(luciferase activity when test compound was added)−(luciferase activity of blank)}/{(luciferase activity of control)−(luciferase activity of blank)}×100 Formula 1

[2] = 1 μmol/L, DLD-1/TCF-Luc cells, luciferase activity after 18 hours

SMILES	Inhibition ratio (%) at 1 μmol/L (tankyrase-2)	inhibition at 1 µM ([1]; DLD-1, 18 h)	Inhibition ratio (%) at 1 μmol/L [1, 2]	inhibition at 1 µM [1, 2]
N#Cc1cccc(N2C(=O)N(CC3CCN(c4ncnc5cc(C(=O)O)ccc45)CC3)Cc3ccccc32)c1 [Compound 25, 4-(4-{[1-(3-Cyanophenyl)-2-oxo-1,2-dihydroquinazolin-3(4H)-yl]methyl}piperidin-1-yl)quinazoline-7-carboxylic acid]	81%	86%		
N#Cc1cccc(N2C(=O)N(CC3CCN(c4ncnc5c[n+]([O-])ccc45)CC3)Cc3ccccc32)c1 [Compound 29, 4-(4-{[1-(3-Cyanophenyl)-2-oxo-1,2-dihydroquinazolin-3(4H)-yl]methyl}piperidin-1-yl)pyrido[3,4-d]pyrimidine-7-oxide]	87%	74%		
N#Cc1cc(N2C(=O)N(CC3CCN(c4nccn5ccnc45)CC3)Cc3ccccc32)ccn1 [Compound 30, 4-(3-{[1-(Imidazo[1,2-a]pyrazin-8-yl)piperidin-4-yl]methyl}-2-oxo-3,4-dihydroquinazolin-1(2H)-yl)picolinonitrile]	92%	69%		
COc1cncnc1N1CCC(CN2Cc3ccccc3N(c3ccnc(C#N)c3)C2=O)CC1 [Compound 32, 4-(3-{[1-(5-Methoxypyrimidin-4-yl)piperidin-4-yl]methyl}-2-oxo-3,4-dihydroquinazolin-1(2H)-yl)picolinonitrile]	94%	76%		
N#Cc1cc(N2C(=O)N(CC3CCN(c4nccc5nc[nH]c(=O)c45)CC3)Cc3ccccc32)ccn1 [Compound 34, 4-(2-Oxo-3-{[1-(4-oxo-3,4-dihydropyrido[4,3-d]pyrimidin-5-yl)piperidin-4-yl]methyl}-3,4-dihydroquinazolin-1(2H)-yl)picolinonitrile]	87%	78%		
N#Cc1cc(N2C(=O)N(CC3CCN(c4ncnc5c4NC(=O)CO5)CC3)Cc3ccccc32)ccn1 [Compound 35, 4-(2-Oxo-3-{[1-(6-oxo-6,7-dihydro-5H-pyrimido[4,5-b][1,4]oxazin-4-yl)piperidin-4-yl]methyl}-3,4-dihydroquinazolin-1(2H)-yl)picolinonitrile]	88%	79%		
N#Cc1cc(N2C(=O)N(CC3CCN(c4ncnc5[nH]c(=O)[nH]c45)CC3)Cc3ccccc32)ccn1 [Compound 36, 4-(2-Oxo-1-{[1-(8-oxo-8,9-dihydro-7H-purin-6-yl)piperidin-4-yl]methyl}-3,4-dihydroquinazolin-1(2H)-yl)picolinonitrile]	88%		79%	
N#Cc1cc(N2C(=O)N(CC3CCN(c4ncnc5cc(N6CCOCC6)ccc45)CC3)Cc3ccccc32)ccn1 [Compound 37, 4-(3-{[1-(7-Morpholinoquinazolin-4-yl)piperidin-4-yl]methyl}-2-oxo-3,4-dihydroquinazolin-1(2H)-yl)picolinonitrile]	87%	82%		
N#Cc1cc(N2C(=O)N(CC3CCN(c4cccc5n[nH]c(=O)n45)CC3)Cc3ccccc32)ccn1 [Compound 38, 4-(2-Oxo-3-{[1-(3-oxo-2,3-dihydro-[1,2,4]triazolo[4,3-a]pyridin-5-yl)piperidin-4-yl]methyl}-3,4-dihydroquinazolin-1(2H)-yl)picolinonitrile]	94%	89%		
N#Cc1cc(N2C(=O)N(CC3CCN(c4c(C(N)=O)ccnc4F)CC3)Cc3ccccc32)ccn1 [Compound 40, 3-(4-{[1-(2-Cyanopyridin-4-yl)-2-oxo-1,2-dihydroquinazolin-3(4H)-yl]methyl}piperidin-1-yl)-2-fluoroisonicotinamide]	93%	78%		
N#Cc1cc(N2C(=O)N(CC3CCN(c4ncnc5cc(N)cnc45)CC3)Cc3ccccc32)ccn1 [Compound 41, 4-(3-{[1-(7-Aminopyrido[3,2-d]pyrimidin-4-yl)piperidin-4-yl]methyl}-2-oxo-3,4-dihydroquinazolin-1(2H)-yl)picolinonitrile]	92%	81%		
CC(=O)N1CCc2ncnc(N3CCC(CN4Cc5ccccc5N(c5ccc(F)c(C#N)c5)C4=O)CC3)c2C1 [Compound 44, 5-(3-{[1-(6-Acetyl-5,6,7,8-tetrahydropyrido[4,3-d]pyrimidin-4-yl)piperidin-4-yl]methyl}-2-oxo-3,4-dihydroquinazolin-1(2H)-yl)-2-fluorobenzonitrile]	93%	82%		
N#Cc1cc(N2C(=O)N(CC3CCN(c4nccc5nc[nH]c(=O)c45)CC3)Cc3cccnc32)ccc1F [Compound 47, 2-Fluoro-5-(2-oxo-3-{[1-(4-oxo-3,4-dihydropyrido[4,3-d]pyrimidin-5-yl)piperidin-4-yl]methyl}-3,4-dihydropyrido[2,3-d]pyrimidin-1(2H)-yl)benzonitrile]	80%			82%
COc1ccc2c(c1)CN(CC1CCN(c3nccc4nc[nH]c(=O)c34)CC1)C(=O)N2c1ccnc(C(N)=O)c1 [Compound 48, 4-(6-Methoxy-2-oxo-3-{[1-(4-oxo-3,4-dihydropyrido[4,3-d]pyrimidin-5-yl)piperidin-4-yl]methyl}-3,4-dihydroquinazolin-1(2H)-yl)picolinamide]	93%			84%
